In one test the test system is HeLa nuclear extracts. The following applies: for ability to up-regulate transcription (activity in words, compared with AD 1): Example 9 numbering (FIG. 13/14A), ATF14 as positive control, FIG. 15.
Test [1] has as its system transcription mediated by 4. Kind of test: competition/squelching experiment: free activation domain added to in vitro transcription reactions containing the DNA-bound activator. The class given is biochemical, human. The note with it: 1-10 μM concentration of free activation domain; FIG. 7. On the procedure: In this experiment, micromolar concentrations of free activation domain are added to transcription reactions containing the DNA-bound activator and the corresponding affect on transcription levels is measured. Results with one of the activation domains (4) is shown (See, e.g., FIGS. 7-8).

As to “2-(4({(6-(Amino-methylcarbaminidoylimino-methyl)-pyrazin-2-ylmethyl)-methylamino}-methyl)-benzoylamino)-4-(2-(2-benzyl-(5RS)-hydroxymethyl-(3RS)-isobutylisoxazolidin-3-yl)-ethylidene-hydrazinocarbonyl)-(S)-butyric acid [isoxazolidine 6]”, the “ability to up-regulate transcription (activity in words, compared with AD 1)” value in the test on HeLa nuclear extracts is “function well as transcriptional ADs”.

In the case of “2-(4({(6-(Amino-methylcarbaminidoylimino-methyl)-pyrazin-2-ylmethyl)-methylamino}-methyl)-benzoylamino)-4-(2-benzyl-(3RS)-(2-hydroxy-ethyl)-3-isobutylisoxazolidin-(5RS)-ylmethylene-hydrazinocarbonyl)-(S)-butyric acid [isoxazolidine 4]”, the “ability to up-regulate transcription (activity in words, compared with AD 1)” value in the test with HeLa nuclear extracts is recorded as “indistinguishable from that of AD 1”. Still for that read-out and setting: the result for `CC(C)C[C@]1(C/C=N/NC(=O)CC[C@H](NC(=O)c2ccc(N(C)Cc3cnc4nc(N)nc(N)c4n3)cc2)C(=O)O)C[C@](C)(CO)ON1CC(=O)O` (racemic) [isoxazolidine 3, 2-(4({(6-(Amino-methylcarbaminidoylimino-methyl)-pyrazin-2-ylmethyl)-methylamino}-methyl)-benzoylamino)-4-{2-((5RS)-hydroxymethyl-2-(hydroxy-2-oxopropyl)-(3RS)-isobutyl-isoxazolidin-3-yl)-ethylidene-hydrazinocarbonyl}-(S)-butyric acid] reads “indistinguishable from that of AD 1”.

With `COC(OC)C1CC(CCO)(CC(C)C)N(Cc2ccccc2)O1` (centres unmarked) [S8, 2-(2-Benzyl-5-dimethoxymethyl-3-isobutyl-isoxazolidin-3-yl)-ethanol], the “suppression of transcription mediated by 4” value in test [1] is reported as around 50%. For the same molecule, in the test with HeLa nuclear extracts (isoxazolidine and methotrexate hydrazide 1 added separately in the same reaction, FIG. 6), the “transcriptional activation when the activation domain is not covalently linked to methotrexate (not localized to DNA)” value is “Little activation”.
